The source of these data is US20110021640A1 (priority 2009, published 2011).

A word on the IC50: it is the midpoint of a concentration-inhibition curve.

The target in the experiment is T1, calf spleen adenosine deaminase (Bos taurus, UniProt P56658).
T1 construct: The calf spleen adenosine deaminase (Specific Activity of 178 Units/mg protein) is purchased from Sigma Chemical Company; purchased Sigma Chemical Company, St Louis, Mo; host or cells: calf spleen (tissue-derived enzyme)
T1 sequence (P56658 1-363): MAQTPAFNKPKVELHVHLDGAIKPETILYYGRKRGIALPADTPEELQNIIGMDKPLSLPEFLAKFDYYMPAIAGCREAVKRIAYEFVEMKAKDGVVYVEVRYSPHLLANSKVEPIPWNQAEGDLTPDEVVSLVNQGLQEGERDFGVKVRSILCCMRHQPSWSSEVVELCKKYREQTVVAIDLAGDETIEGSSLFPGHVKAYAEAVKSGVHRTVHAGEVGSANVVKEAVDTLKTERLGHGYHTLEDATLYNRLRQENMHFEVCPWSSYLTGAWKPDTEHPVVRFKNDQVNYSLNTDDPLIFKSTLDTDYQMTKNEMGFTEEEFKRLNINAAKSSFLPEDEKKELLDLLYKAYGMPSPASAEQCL
As to the kind of experiment: Adenosine Deaminase (ADA) Assay, spectrophotometric at 265 nm. Type of experiment: biochemical. Particulars: Tris-HCl buffer 50 mM, pH 7.5, 25° C., adenosine substrate; dose-response (FIGS. 1 and 2); read-out: IC50, amount of the product per ml of the reaction mixture producing the enzyme inhibition by 50% (converted). As to the method: The enzyme catalyzes the following reaction:
Adenosine+H2O→Inosine+NH3
The calf spleen adenosine deaminase (Specific Activity of 178 Units/mg protein) is purchased from Sigma Chemical Company, St Louis, Mo. The enzyme assay is carried out spectrophotometrically at 265 nm. The reaction mixture (in a 1-ml cuvette; diameter=1.0 cm) contains 0.9 ml of buffer (Tris-HCL buffer, 50 mM, pH 7.5), 25 μl of adenosine (2 mM), plus the enzyme, water and the extract to make 1 ml. The enzyme is added to start the reaction, and a decrease in absorbency at 265 nm is followed at 25° C. One unit of ADA activity is the amount of the enzyme that catalyzes 1 μmole of adenosine/min/ml of the reaction mixture.
The IC50 values have been determined by examining the dose-response effects of both products. The IC50 values represent the amount of the product per ml of the reaction mixture, producing the enzyme inhibition by 50%. In the enzyme assay, first a background reading is recorded on the chart for 1-2 min, followed by the addition of an appropriate amount of the enzyme to start the reaction, which is monitored spectrophotometrically.

Take `Oc1ccc(/C=C/c2cc(O)cc(O)c2)cc1` [resveratrol, 3,5,4′-trihydroxystilbene]: the IC50 is 50.8 µM.
